{"source": "patent US7307097B2", "about": "“Chemical compounds” (SmithKline Beechman Corporation, priority 2001, dated 2007)", "key": {"[1]": {"target": "T1, GST-VEGFR2 (Homo sapiens, UniProt P35968)", "T1 construct": "recombinant constructs of the intracellular domains of human TIE2 tagged by GST; made in house", "T1 sequence (P35968 786-1356 limits assumed)": "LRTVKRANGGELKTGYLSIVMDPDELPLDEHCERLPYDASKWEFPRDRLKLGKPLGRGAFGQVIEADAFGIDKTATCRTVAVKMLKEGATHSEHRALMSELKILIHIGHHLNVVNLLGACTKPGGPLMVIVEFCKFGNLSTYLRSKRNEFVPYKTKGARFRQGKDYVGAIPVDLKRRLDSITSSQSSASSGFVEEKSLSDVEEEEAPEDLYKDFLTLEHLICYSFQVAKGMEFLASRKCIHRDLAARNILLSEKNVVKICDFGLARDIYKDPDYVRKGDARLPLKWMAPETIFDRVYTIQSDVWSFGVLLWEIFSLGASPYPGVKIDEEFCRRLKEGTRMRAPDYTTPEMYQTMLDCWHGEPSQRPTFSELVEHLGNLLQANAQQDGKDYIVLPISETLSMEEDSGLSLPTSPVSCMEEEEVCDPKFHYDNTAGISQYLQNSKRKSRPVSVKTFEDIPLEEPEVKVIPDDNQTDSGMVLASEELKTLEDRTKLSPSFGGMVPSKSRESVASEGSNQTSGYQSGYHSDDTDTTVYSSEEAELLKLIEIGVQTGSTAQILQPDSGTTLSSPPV", "assay": "VEGF-R2 enzyme assay (VEGFR-2-E2), LANCE method", "assay_type": "biochemical", "conditions": "75 uM ATP", "excerpt": "VEGF-R2 Enzyme Assay (VEGFR-2-E2)\nThe VEGF enzyme assay uses the LANCE method (Wallac) and GST-VEGFR2, baculovirus expressed recombinant constructs of the intracellular domains of […] tagged by GST. The method measures the ability of the purified enzymes to catalyse the transfer of the γ-phosphate from ATP onto tyrosine residues in a biotinylated synthetic peptide, (biotin-aminohexyl-EEEEYFELVAKKKK-NH2). This peptide phosphorylation is detected using the following procedure: GST-VEGFR2 is incubated for 40-60 mins at room temperature with 75 uM ATP, 5 mM MgCl2, 0.1 mM DTT, 0.1 mg/mL BSA and the test compound (diluted from a 10 mM stock in DMSO for desired concentration) in 100 mM HEPES buffer. The reaction is stopped by the addition of EDTA (final concentration 50 mM). Streptavidin linked-APC (allophycocyanin, Molecular Probe) and Europium-labeled anti-phosphorylated tyrosine antibody (Wallac) are then added at the final concentration of 15 nM and 1 nM, respectively. The APC signal is measured using an ARVO multilabel counter (Wallac Berthold, Japan). The percent inhibition of activity is calculated relative to blank control wells. The concentration of test compound that inhibits 50% of activity (IC50) is interpolated using nonlinear regression (Levernberg-Marquardt) and the equation, y=Vmax (1−x/(K+x))+Y2, where “K” is equal to the IC50. […]"}, "[2]": {"target": "T2, human VEGFR3 catalytic domain (Homo sapiens, UniProt P35916, H890Q)", "T2 construct": "made in house; host or cells: Sf9 insect cells (baculovirus, pFastBac1)", "T2 sequence (P35916 with tags, fused parts or gaps isoform P35916-1 H890Q)": "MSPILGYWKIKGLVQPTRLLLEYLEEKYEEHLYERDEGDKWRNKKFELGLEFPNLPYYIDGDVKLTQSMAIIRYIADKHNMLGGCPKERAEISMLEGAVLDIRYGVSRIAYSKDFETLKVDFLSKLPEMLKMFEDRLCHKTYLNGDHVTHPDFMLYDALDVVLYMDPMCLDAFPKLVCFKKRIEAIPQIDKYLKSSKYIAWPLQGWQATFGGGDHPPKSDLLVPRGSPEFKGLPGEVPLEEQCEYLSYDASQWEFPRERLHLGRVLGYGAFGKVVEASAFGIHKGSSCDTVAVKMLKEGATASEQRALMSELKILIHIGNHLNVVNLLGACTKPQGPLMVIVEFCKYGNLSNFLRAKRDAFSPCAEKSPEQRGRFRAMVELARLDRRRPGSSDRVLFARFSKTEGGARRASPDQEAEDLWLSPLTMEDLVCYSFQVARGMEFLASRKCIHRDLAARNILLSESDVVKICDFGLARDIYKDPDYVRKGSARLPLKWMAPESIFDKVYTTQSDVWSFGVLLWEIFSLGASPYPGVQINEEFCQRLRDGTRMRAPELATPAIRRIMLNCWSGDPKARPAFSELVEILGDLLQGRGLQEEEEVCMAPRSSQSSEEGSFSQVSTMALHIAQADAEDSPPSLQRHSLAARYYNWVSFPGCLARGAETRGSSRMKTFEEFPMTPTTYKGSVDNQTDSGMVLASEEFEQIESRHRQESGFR", "assay": "VEGFR-3 homogenous time-resolved fluorescence assay (VEGFR-3-HTRF)", "assay_type": "biochemical", "conditions": "75 μM ATP, 1 nM enzyme", "excerpt": "VEGFR-3—Homogenous Time-resolved Fluorescence Assay (VEGFR-3-HTRF)\nThis assay assesses Vascular Endothelial Growth Factor 3 (VEGFR3) tyrosine kinase inhibitory activity in substrate phosphorylation assays. The assay examines the ability of small molecule organic compounds to inhibit the tyrosine phosphorylation of a peptide substrate.\nThe substrate phosphorylation assays use the VEGFR3 catalytic domain, which is expressed in Sf. 9 insect cells as an amino-terminal GST-tagged fusion protein. The catalytic domain of human VEGFR3 (AA residues #819-1298 based upon GenBank Accession #XM003852) is cloned by PCR from human Placenta Marathon Ready cDNA (Clontech). The PCR product is subcloned into pFastBac1 vector containing an N-terminal GST tag. […]\n200 nM VEGFR3 enzyme is activated for 45 minutes at room temperature by incubating the enzyme in buffer containing 100 mM HEPES (pH7.2), 75 μM ATP, 0.3 mM DTT, 0.1 mg/mL BSA, and 10 mM MgCl2. […] Assay plates are left unsealed and are counted in a Wallac Multilabel Counter 1420 (PerkinElmer).\nThe data for dose responses are plotted as % Control calculated with the data reduction formula 100*(U1-C2)/(C1-C2) versus concentration of compound where U is the unknown value, C1 is the average control value obtained for DMSO, and C2 is the average control value obtained for 0.1M EDTA. […]"}, "[3]": {"target": "T3, GST-TIE2 (intracellular domains of human TIE2) (Homo sapiens, UniProt Q02763)", "T3 construct": "made in house", "T3 sequence (Q02763 762-1104)": "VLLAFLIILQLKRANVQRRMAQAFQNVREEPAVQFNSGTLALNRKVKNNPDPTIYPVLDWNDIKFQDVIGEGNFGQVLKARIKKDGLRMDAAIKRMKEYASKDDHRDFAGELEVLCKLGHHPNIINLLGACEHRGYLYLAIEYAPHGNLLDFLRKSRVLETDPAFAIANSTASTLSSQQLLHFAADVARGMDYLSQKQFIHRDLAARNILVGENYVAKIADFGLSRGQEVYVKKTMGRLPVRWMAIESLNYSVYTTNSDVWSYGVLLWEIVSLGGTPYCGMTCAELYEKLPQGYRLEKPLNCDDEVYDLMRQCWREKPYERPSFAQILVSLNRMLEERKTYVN", "assay": "TIE-2 enzyme assay (TIE-2-E2)", "assay_type": "biochemical", "excerpt": "TIE-2 Enzyme Assay (TIE2-E)\nThe TIE-2 enzyme assay uses the LANCE method (Wallac) and GST-TIE2, baculovirus expressed recombinant constructs of the intracellular domains of human TIE2 (amino acids 762-1104, GenBank Accession # L06139) tagged by GST). The method measures the ability of the purified enzymes to catalyse the transfer of the γ-phosphate from ATP onto tyrosine residues in a biotinylated synthetic peptide, D1-15 (biotin-C6-LEARLVAYEGWVAGKKKamide). This peptide phosphorylation is detected using the following procedure: for enzyme preactivation, GST-TIE2 is incubated for 30 mins at room temperature with 2 mM ATP, 5 mM MgCl2 and 12.5 mM DTT in 22.5 mM HEPES buffer (pH7.4). Preactivated GST-TIE2 is incubated for 30 mins at room temperature in 96 well plates with 1 uM D1-15 peptide, 80 uM ATP, 10 mM MgCl2, 0.1 mg/ml BSA and the test compound (diluted from a 10 mM stock in DMSO, final DMSO concentration is 2.4%) in 1 mM HEPES (pH7.4). The reaction is stopped by the addition of EDTA (final concentration 45 mM). Streptavidin linked-APC (allophycocyanin, Molecular Probe) and Europium-labeled anti-phosphorylated tyrosine antibody (Wallac) are then added at the final concentration of 17 ug/well and 2.1 ug/well, respectively. The APC signal is measured using an ARVO multilabel counter. […] The percent inhibition of activity is calculated relative to blank control wells. […]"}, "[4]": {"tested_on": "Human umbilical cord endothelial cells (HUVEC)", "assay": "VEGF-driven cellular proliferation assay: BrdU incorporation assay (VEGF-C)", "assay_type": "cell-based", "conditions": "read-out: VEGF-C pIC50 (converted)", "procedure": "VEGF-driven Cellular Proliferation Assay: BrdU Incorporation Assay (VEGF-C)\nHuman umbilical cord endothelial cells (HUVEC, Clonetics, CC2519) are passaged in Type I collagen-coated 100-mm petridishes in EGM-MV medium (Clonetics, CC3125) at 37 C. in a humidified 5% CO2, 95% air incubator. (HUVEC passaged more than 6 times in vitro are discarded and not subjected to assaying.) The cells are harvested using trypsin/EDTA, counted using a haemocytometer and plated at 5000 cells/well in a Type I-collagen coated 96-well plate (Becton Dickinson, 354407) in M199 medium (Gibco BRL, 12340-030) containing 5% FBS (Hyclone, A 1115-L) and gentamicin (at 50 ug/ml, Gibco BRL). After incubation overnight at 37° C., the media are replaced with 100 ul of M199 serum-free medium containing compounds at various concentrations with 0.6% DMSO and gentamicin. The compounds are diluted in serum-free M199 medium from 10 mM stock solutions prepared in 100% DMSO. […] The incorporation of BrdU into the proliferating HUVEC are analyzed using BrdU Cell Proliferation ELISA (Roche Molecular Biochemicals, 1647229) according to the manufacturer's protocols. The optical density at 450 nm is measured with a multilabel counter (ARVO SX, Wallac). The percent inhibition of cell growth is calculated relative to blank control wells. […]"}, "[5]": {"target": "Recombinant GST-Tie2 (Homo sapiens, UniProt Q02763)", "sequence (Q02763 23-1124)": "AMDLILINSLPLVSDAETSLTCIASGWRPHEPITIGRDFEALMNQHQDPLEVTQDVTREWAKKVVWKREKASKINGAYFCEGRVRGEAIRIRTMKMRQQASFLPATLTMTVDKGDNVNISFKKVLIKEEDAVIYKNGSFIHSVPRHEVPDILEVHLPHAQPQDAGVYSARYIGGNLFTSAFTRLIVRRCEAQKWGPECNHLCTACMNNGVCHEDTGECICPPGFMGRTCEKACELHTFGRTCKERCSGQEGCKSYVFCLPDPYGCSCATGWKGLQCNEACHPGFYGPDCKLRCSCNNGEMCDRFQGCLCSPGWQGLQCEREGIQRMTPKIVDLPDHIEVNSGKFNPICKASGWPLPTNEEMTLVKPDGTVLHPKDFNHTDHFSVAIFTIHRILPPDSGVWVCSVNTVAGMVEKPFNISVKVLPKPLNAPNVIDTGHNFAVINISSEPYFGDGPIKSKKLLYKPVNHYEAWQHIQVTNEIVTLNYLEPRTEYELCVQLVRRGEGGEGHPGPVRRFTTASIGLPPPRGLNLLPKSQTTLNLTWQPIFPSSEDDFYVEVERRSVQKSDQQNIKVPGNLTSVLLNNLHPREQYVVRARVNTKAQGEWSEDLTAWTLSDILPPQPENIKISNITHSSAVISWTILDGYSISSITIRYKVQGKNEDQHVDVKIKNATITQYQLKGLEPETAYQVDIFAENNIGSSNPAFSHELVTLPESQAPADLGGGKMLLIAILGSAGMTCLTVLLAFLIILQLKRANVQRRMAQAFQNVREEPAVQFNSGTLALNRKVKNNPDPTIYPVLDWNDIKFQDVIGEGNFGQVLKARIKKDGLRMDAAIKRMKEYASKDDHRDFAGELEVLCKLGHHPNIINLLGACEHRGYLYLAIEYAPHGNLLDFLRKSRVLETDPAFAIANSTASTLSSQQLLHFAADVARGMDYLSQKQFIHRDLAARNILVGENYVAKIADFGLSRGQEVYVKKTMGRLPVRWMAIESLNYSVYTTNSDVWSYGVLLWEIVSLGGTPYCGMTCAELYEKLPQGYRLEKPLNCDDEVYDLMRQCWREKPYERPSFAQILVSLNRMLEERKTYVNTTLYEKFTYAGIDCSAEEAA", "assay": "Tie2 fluorescence polarization kinase activity assay (TIE2-FP)", "assay_type": "biochemical", "conditions": "200 μM ATP, activated enzyme; read-out: TIE2-FP pIC50 (converted)", "procedure": "Tie2 Fluorescence Polarization Kinase Activity Assay (TIE2-FP) Activation of Recombinant Tie2 Activation: Recombinant GST-Tie2 is activated by incubating the enzyme in 20 mM Tris-HCl, pH7.5, 12 mM MgCl2, 100 mM NaCl, 20 μM sodium vanidate, 1 mM DTT and 300 μM ATP at room temperature for 2 hours. The activation mixture is then passed through a NAP-25 desalting column (Pharmacia Biotech cat. no. 17-0852-02) to remove the free ATP. The activated enzyme is stored as aliquots at−80° C. in 20mM Tris-HCl, pH7.5 and 100 mM NaCl. Assay Conditions: The final assay conditions are 50 mM HEPES, pH7.5, 5% DMSO (when screening compounds), 200 μM ATP, 5mM MgCl2, 1 mM DTT, 50 μM sodium vanidate, 1 nM activated enzyme, and 200 μM peptide. IC50's of compounds are measured under subsaturating ATP (200 μM) and varing concentrations of activated Tie2 and peptide substrate (RFWKYEFWR-OH; MW 1873 Da, TFA salt). Panvera Anti-phosphotyrosine antibody (Cat#P2840) and PTK Green Tracer (Cat#P2842) are used to detect the phosphorylated peptide. Polarization is measured on a TECAN Polarion in 138-second cycles for 30 minutes at room temperature. IC50's are then determined from the % polarization using normal calculation methods. The IC50 values are converted to pIC50 values, i.e.,−log IC50 in Molar concentration."}}, "data": [{"compound": "N,N-Dimethylamino-{4-[3-(fluoro-trifluoromethyl-phenyl)-ureido]-phenyl}-methyl-1H-pyrazole-4-carboxylic acid amide [Example 34]", "values": [{"measurement": "VEGFR-2-E2 pIC50", "setting": "[1]", "result": "+ (+ = pIC50 of 5.0-6.0)"}, {"measurement": "VEGFR-3-HTRF pIC50", "setting": "[2]", "result": "+ (+ = pIC50 of 5.0-6.0)"}, {"measurement": "TIE-2-E2 pIC50", "setting": "[3]", "result": "+++ (+++ = pIC50 > 7.0)"}]}, {"compound": "CC(C)(C)n1nc(-c2ccc(NC(=O)Nc3cc(C(F)(F)F)ccc3F)cc2)c(C(N)=O)c1N", "note": "[Example 1, 5-Amino-1-tert-butyl-3-{4-[3-(2-fluoro-5-trifluoromethyl-phenyl)-ureido]-phenyl}-1H-pyrazole-4-carboxylic acid amide]", "values": [{"measurement": "IC50", "setting": "[4]", "result": "< 100", "unit": "nM"}, {"measurement": "IC50", "setting": "[5]", "result": "< 100", "unit": "nM"}]}, {"compound": "CC(C)(C)c1cc(NC(=O)Nc2ccc(-c3nn(C(C)(C)C)c(N)c3C(N)=O)cc2)no1", "note": "[Example 35, 5-Amino-1-tert-butyl-3-{4-[3-(5-tert-butyl-isoxazol-3-yl)-ureido]-phenyl}-1H-pyrazole-4-carboxylic acid amide]", "values": [{"measurement": "IC50", "setting": "[1]; read-out: VEGFR-2-E2 pIC50 (converted)", "result": "< 100", "unit": "nM"}, {"measurement": "IC50", "setting": "[2]; read-out: VEGFR-3-HTRF pIC50 (converted)", "result": "< 100", "unit": "nM"}, {"measurement": "IC50", "setting": "[3]; read-out: TIE-2-E2 pIC50 (converted)", "result": "< 100", "unit": "nM"}]}]}
